Experimental data from patent US20240043404A1 (AbbVie Inc., priority 2009, published 2024).

Columns and labels:
RS4;11 cells [1] = conditions: RS4;11 acute lymphoblastic leukemia cell line; cited from earlier work
Bcl-2 = Bcl-2 (Homo sapiens (Human), UniProt P10415); assay: Time Resolved-Fluorescence Resonance Energy Transfer (TR-FRET) Bcl-2 binding assay; conditions: GST-Bcl-2 1 nM, F-Bak peptide probe 100 nM, Tb-anti-GST 1 nM; < means below limit of detection; read-out: TR-FRET Bcl-2 Binding Ki
Bcl-2, sequence (P10415 whole entry): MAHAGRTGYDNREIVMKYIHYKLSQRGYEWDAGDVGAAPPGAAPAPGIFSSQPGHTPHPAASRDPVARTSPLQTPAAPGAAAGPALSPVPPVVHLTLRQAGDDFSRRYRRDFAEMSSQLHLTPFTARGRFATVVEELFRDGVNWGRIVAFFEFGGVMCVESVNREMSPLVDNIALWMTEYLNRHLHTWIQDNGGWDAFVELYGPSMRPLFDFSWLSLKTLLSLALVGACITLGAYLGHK
Procedure: The samples are then mixed on a shaker for 1 minute and incubated for an additional 3 hours at room temperature. For each assay, the probe/antibody and protein/probe/antibody were included on each assay plate as negative and positive controls, respectively.
The samples were then mixed on a shaker for 1 minute and incubated for an additional 3 hours at room temperature. For each assay, the probe/antibody and protein/probe/antibody were included on each assay plate as negative and positive controls, respectively.

RS4;11 cells [2] = assay: RS4;11 cell viability assay (CellTiter Glo); type: cell-based, human; conditions: Homo sapiens, RS4-11, 48 h, 50,000 cells per well, 10% human serum, 48 hours; read-out: RS4; 11 EC50 Values;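 note: acute lymphoblastic leukemia line RS4,11, EC50 derived from percentage of viable cells after treatment relative to untreated controls, cell killing taken as a measure of Bcl-2 inhibition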
Procedure: The acute lymphoblastic leukemia (ALL) cell line RS4;11 was used as the primary human cell line to assess the cellular activity of Bcl-2 selective agents in vitro and their efficacy in vivo.
Cell cytotoxicity EC50 values were assessed using CellTiter Glo (Promega) according to the manufacturer's recommendations. The EC50 values were determined as a percentage of viable cells following treatment compared to the untreated control cells.

Compound	sensitivity of RS4;11 cells to inhibitor (RS4;11 cells [1])	Ki (Bcl-2) [nM]	EC50 (RS4;11 cells [2]) [nM]
CN(C)CC[C@H](CSc1ccccc1)Nc1ccc(S(=O)(=O)NC(=O)c2ccc(N3CCN(Cc4ccccc4-c4ccc(Cl)cc4)CC3)cc2)cc1[N+](=O)[O-] [ABT-737, N-(4-(4-((4′-chloro(1,1′-biphenyl)-2-yl)methyl)piperazin-1-yl)benzoyl)-4-(((1R)-3-(dimethylamino)-1-((phenylsulfanyl)methyl)propyl)amino)-3-nitrobenzenesulfonamide]	sensitive	–	–
CC1(C)CCC(CN2CCN(c3ccc(C(=O)NS(=O)(=O)c4ccc(OCC5CCN(C6COC6)CC5)c([N+](=O)[O-])c4)c(Oc4cnc5[nH]ccc5c4)c3)CC2)=C(c2ccc(Cl)cc2)C1 [Example 191, 4-(4-{[2-(4-chlorophenyl)-4,4-dimethylcyclohex-1-en-1-yl]methyl}piperazin-1-yl)-N-({3-nitro-4-[(1-oxetan-3-ylpiperidin-4-yl)methoxy]phenyl}sulfonyl)-2-(1H-pyrrolo[2,3-b]pyridin-5-yloxy)benzamide]	–	< 0.01	6.91
